Measurements taken from patent publication US5436229A, “Bisulfite adducts of arginine aldehydes” (Eli Lilly and Company, priority 1994, dated 1995).

Columns and labels:
Type in all cases: biochemical
[1] = target: human thrombin (Homo sapiens, UniProt P00734); assay: Thrombin amidase inhibition (Kass), chromogenic substrate
Method: The assay is carried out by mixing 50 μl buffer (0.03M Tris, 0.15M NaCl, pH 7.4) with 25 μl of human thrombin solution (purified human thrombin, Enzyme Research Laboratories, South Bend, Ind., at 8 NIH units/ml) and 25 μl of test compound in a solvent (50% aqueous methanol (v:v)). Then 150 μl of an aqueous solution of the chromogenic substate (at 0.25 mg/ml) are added and the rates of hydrolysis of the substrate are measured by monitoring the reactions at 405 nm for the release of p-nitroaniline. Standard curves are constructed by plotting free thrombin concentration against hydrolysis rate. […] The amount of free inhibitor in each assay is calculated by subtracting the number of moles of bound thrombin from the number of moles of added inhibitor (test compound).
The Kass value is the hypothetical equilibrium constant for the reaction between thrombin and the test compound (I) . [formula]
Kass is calculated for a range of concentrations of test compounds and the mean value reported in units of liter per mole.

[2] = test system: human plasma; assay: Human plasma anticoagulation, activated partial thromboplastin time (APTT)
Method: (§1) Fibrinogen is prepared from in-date ACD human blood as the fraction I-2 according to previous procedures and specifications. Smith, Biochem. […] Coagulation reagents ACTIN, Thromboplastin, and Human plasma are from Baxter Healthcare Corp., Dade Division, Miami, Fla. Bovine thrombin from Parke-Davis (Detroit, Mich.) is used for coagulation assays in plasma. Coagulation assay procedures are as previously described. […] A CoAScreener coagulation instrument (American LABor, Inc.) is used for all coagulation assay measurements. […] The compounds of formula I are added to human or animal plasma over a wide range of concentrations to determine prolongation effects on the APTT, PT, and TT assays. Linear extrapolations are performed to estimate the concentrations required to double the clotting time for each assay.

[3] = test system: human plasma; assay: Human plasma anticoagulation, thrombin time (TT)
Method: as §1

[4] = target: T1, tissue plasminogen activator (t-PA) (Homo sapiens, UniProt P00750); assay: Serine protease inhibition (Kass), t-PA
T1 construct: purchased American Diagnostica, Greenwich, Conn
Method: (§2) By substantially following the procedures described above for human thrombin, and using other human blood coagulation system serine proteases and using fibrinolytic system serine proteases, with the appropriate chromogenic substrates, identified below, the selectivity of the compounds of the present invention with respect to the coagulation factor serine proteases and to the fibronolytic serine proteases are evaluated as well as their substantial lack of interference with human plasma clot fibrinolysis.
(§3) Human plasmin is purchased from Boehringer Mannheim, Indianapolis, Ind.; nt-PA is purchased as single chain activity reference from American Diagnostica, Greenwich, Conn.; modified-t-PA6 (mt-PA6) is prepared at Eli Lilly and Company by procedure known in the art (See, Burck, et al., J. Biol. Chem., 265, […] (1990). Plasmin chromogenic substrate H-D-Val-Leu-Lys-p-nitroanilide and tissue plasminogen activator (t-PA) substrate H-D-Ile-Pro-Arg-p-nitroanilide are purchased from Kabi Vitrum, Stockholm, Sweden.

[5] = target: T2, factor Xa (Homo sapiens, UniProt P00742); assay: Serine protease inhibition (Kass), factor Xa
T2 construct: Human factors X, Xa, IXa, XIa, and XIIa are purchased from Enzyme Research Laboratories; purchased Enzyme Research Laboratories, South Bend, Ind
Method: as §2
(§4) Human factors X, Xa, IXa, XIa, and XIIa are purchased from Enzyme Research Laboratories, South Bend, Ind.; human urokinase from Leo Pharmaceuticals, Denmark; and recombinant activated Protein C (aPC) is prepared at Eli Lilly and Co. substantially according to U.S. Pat. No. 4,981,952 incorporated by reference herein in its entirety. Chromogenic substrates: N-Benzoyl-Ile-Glu-Gly-Arg-p-nitroanilide (for factor Xa); N-Cbz-D-Arg-Gly-Arg-p-nitroanilide (for factor IXa assay as the factor Xa substrate); Pyroglutamyl-Pro-Arg-p-nitroanilide (for Factor XIa and for aPC); H-D-Pro-Phe-Arg-p-nitroanilide (for factor XIIa); and Pyroglutamyl-Gly-Arg-p-nitroanilide (for urokinase); are purchased from KabiVitrum, Stockholm, Sweden, or from Midwest Biotech, Fishers, Ind. Bovine trypsin is purchased from Worthington Biochemicals, Freehold, N.J., and human plasma kallikrein from Kabi Vitrum, Stockholm, Sweden. Chromogenic substrate H-D-Pro-Phe-Arg-p-nitroanilide for plasma kallikrein is purchased from Kabi Vitrum, Stockholm, Sweden. N-Benzoyl-Phe-Val-Arg-p-nitroanilide, the substrate for human thrombin and for trypsin, is synthesized according to procedures described above for the compounds of the present invention, using known methods of peptide coupling from commercially available reactants, or purchaed from Midwest Biotech, Fishers, Ind.

[6] = test system: human plasma; assay: Human plasma anticoagulation, prothrombin time (PT)
Method: as §1

[7] = target: T3, Bovine trypsin (Bos taurus, UniProt P00760); assay: Serine protease inhibition (Kass), trypsin
T3 construct: Bovine trypsin is purchased from Worthington Biochemicals; purchased Worthington Biochemicals, Freehold, N.J
T3 sequence (P00760 24-246): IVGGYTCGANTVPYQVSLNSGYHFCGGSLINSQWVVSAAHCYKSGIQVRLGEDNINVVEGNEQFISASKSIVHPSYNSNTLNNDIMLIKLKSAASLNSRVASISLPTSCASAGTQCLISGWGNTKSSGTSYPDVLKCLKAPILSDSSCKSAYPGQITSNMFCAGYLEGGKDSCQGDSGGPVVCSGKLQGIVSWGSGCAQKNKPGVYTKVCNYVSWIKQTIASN
Method: as §2, §4

[8] = target: T4, Human plasmin (Homo sapiens, UniProt P00747); assay: Serine protease inhibition (Kass), plasmin
T4 construct: Human plasmin is purchased from Boehringer Mannheim; purchased Boehringer Mannheim, Indianapolis, Ind
Method: as §2, §3

T1 sequence (P00750 36-562): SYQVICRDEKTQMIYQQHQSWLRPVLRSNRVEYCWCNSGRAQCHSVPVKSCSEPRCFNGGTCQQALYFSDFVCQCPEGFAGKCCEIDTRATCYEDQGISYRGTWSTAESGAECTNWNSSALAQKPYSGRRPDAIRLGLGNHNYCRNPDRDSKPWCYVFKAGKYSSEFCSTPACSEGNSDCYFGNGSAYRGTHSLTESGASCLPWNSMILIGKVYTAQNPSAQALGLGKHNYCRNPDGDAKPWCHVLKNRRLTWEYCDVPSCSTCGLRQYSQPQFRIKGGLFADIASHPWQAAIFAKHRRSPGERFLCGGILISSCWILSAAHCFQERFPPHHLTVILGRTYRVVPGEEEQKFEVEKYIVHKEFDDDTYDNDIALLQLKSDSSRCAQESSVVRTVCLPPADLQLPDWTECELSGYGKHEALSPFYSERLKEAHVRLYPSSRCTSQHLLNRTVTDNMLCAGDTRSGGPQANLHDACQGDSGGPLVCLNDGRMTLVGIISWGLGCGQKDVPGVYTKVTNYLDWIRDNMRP
T4 sequence (P00747 581-810 limits assumed): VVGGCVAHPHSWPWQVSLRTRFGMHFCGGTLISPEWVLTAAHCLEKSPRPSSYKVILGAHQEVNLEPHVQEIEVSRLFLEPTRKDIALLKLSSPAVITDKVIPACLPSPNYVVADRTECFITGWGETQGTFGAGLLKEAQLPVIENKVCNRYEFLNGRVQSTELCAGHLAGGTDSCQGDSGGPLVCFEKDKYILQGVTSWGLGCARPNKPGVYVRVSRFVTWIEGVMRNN
T4 sequence (P00747 97-580 partner limits assumed): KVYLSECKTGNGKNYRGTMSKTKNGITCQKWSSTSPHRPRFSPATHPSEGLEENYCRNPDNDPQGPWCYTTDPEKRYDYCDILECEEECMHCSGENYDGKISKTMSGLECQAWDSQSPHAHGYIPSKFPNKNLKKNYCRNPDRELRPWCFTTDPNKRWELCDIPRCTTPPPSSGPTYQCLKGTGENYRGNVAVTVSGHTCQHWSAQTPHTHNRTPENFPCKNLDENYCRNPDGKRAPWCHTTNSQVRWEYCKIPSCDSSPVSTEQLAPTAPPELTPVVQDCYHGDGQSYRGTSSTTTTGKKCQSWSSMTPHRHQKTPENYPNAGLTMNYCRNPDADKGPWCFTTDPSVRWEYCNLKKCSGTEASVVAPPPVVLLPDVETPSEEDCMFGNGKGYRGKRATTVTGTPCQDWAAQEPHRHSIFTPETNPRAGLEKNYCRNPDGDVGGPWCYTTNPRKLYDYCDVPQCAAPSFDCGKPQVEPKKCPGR
T2 sequence (P00742 235-488 limits assumed): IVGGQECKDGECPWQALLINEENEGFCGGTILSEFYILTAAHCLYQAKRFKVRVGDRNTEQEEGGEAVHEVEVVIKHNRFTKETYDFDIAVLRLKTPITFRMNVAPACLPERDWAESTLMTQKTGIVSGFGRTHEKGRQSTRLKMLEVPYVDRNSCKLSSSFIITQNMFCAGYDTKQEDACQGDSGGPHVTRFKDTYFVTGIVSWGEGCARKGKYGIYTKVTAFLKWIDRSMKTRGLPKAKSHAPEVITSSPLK
T2 sequence (P00742 41-179 partner limits assumed): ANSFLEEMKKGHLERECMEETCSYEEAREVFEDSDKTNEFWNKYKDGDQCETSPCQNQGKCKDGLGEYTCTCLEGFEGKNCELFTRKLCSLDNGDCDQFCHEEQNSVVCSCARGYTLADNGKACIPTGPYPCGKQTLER

SMILES | Kass Human Thrombin [1] | 2 × Clotting time APTT [2] | 2 × Clotting time TT [3] | Kass t-PA [4] | Kass Xa [5] | 2 × Clotting time PT [6] | Kass Trypsin [7] | Kass Plasmin [8]
CC(C)C1N[C@@H](C(=O)N2CCC[C@H]2C(=O)N[C@H](C=O)CCCNC(=N)N)C(C)(C)S1.Cl.Cl (stereo partly drawn) [Example 5, D-2-Isopropyl-5,5-Dimethylthiazolidinyl-4-Carbonyl-L-Prolinyl-L-Arginine Aldehyde Dihydrochloride] | 4 L/mol × 10^6 |  |  |  |  |  |  | 
Cl.Cl.Cl.N=C(N)NCCC[C@@H](C=O)NC(=O)[C@@H]1CCCN1C(=O)[C@H]1C[C@H](Oc2ccc3ccccc3c2)CN1.O [Example 6, trans-4-(2-Naphthyloxy)-D-Prolinyl-L-Prolinyl-L-Arginine Aldehyde Trihydrochloride Monohydrate] | 21 L/mol × 10^6 |  |  |  |  |  |  | 
Cl.Cl.Cl.N=C(N)NCCC[C@@H](C=O)NC(=O)[C@@H]1CCCN1C(=O)[C@H]1C[C@H](Sc2ccccc2)CN1.O.O.O [Example 14, trans-4-phenylthio-D-prolinyl-L-prolinyl-L-arginine aldehyde trihydrochloride trihydrate] | 37 L/mol × 10^6 |  |  |  |  |  |  | 
Cl.Cl.N=C(N)NCCC[C@@H](C=O)NC(=O)[C@@H]1CCCN1C(=O)CN1CCCCC1.O [Example 18, 2-(2-Piperidino)acetyl-L-Pro-L-Arginine Aldehyde Dihydrochloride Monohydrate] | 1 L/mol × 10^6 |  |  |  |  |  |  | 
Cl.Cl.N=C(N)NCCC[C@@H](C=O)NC(=O)[C@@H]1CCCN1C(=O)C1CCCNC1.O (stereo partly drawn) [Example 19, 3-piperidinocarbonyl-L-Pro-L-Arginine Aldehyde Dihydrochloride Monohydrate] | 2 L/mol × 10^6 |  |  |  |  |  |  | 
Cl.Cl.N=C(N)NCCC[C@@H](C=O)NC(=O)[C@@H]1CCCN1C(=O)C1CNC2CCCCC21.O (stereo partly drawn) [Example 20, 3-perhydroindolylcarbonyl-L-pro-L-Arginine Aldehyde Dihydrochloride Monohydrate] | 11 L/mol × 10^6 |  |  |  |  |  |  | 
CNC1CCCCC1C(=O)N1CCC[C@H]1C(=O)N[C@H](C=O)CCCNC(=N)N.Cl.Cl (stereo partly drawn) [Example 21, 2-(N-methyl)aminocyclohexyl-carbonyl-L-Pro-L-Arginine Aldehyde Dihydrochloride] | 18.4 L/mol × 10^6 |  |  |  |  |  |  | 
Cl.Cn1c(C(=O)N[C@@](C)(C(=O)N2CC[C@H]2C(=O)N[C@H](C=O)CCCNC(=N)N)c2ccccc2)cc2ccccc21 [Example 23, 1-methylindole-2-carbonyl-D-(α-methyl)phenylglycine-Azt-Arg-H hydrochloride] | 79 L/mol × 10^6 | 1,800 ng/mL | 59 ng/mL | 0.02 L/mol × 10^6 | 0.06 L/mol × 10^6 | 1,980 ng/mL | 29 L/mol × 10^6 | 0.55 L/mol × 10^6
Cl.Cl.N=C(N)NCCC[C@@H](C=O)NC(=O)[C@@H]1CCCN1C(=O)[C@@]1(Cc2ccccc2)CCCN1.O.O [Example 24, D-Prolinyl (αbenzyl)-L-Prolinyl-L-arginine aldehyde, dihydrochloride dihydrate] | 12 L/mol × 10^6 | 2,100 ng/mL | 160 ng/mL | 0.0034 L/mol × 10^6 | 0.13 L/mol × 10^6 | 3,600 ng/mL | 14 L/mol × 10^6 | 0.31 L/mol × 10^6
Cl.Cl.N=C(N)NCCC[C@@H](C=O)NC(=O)[C@]1(Cc2ccccc2)CCCN1C(=O)[C@@H]1CCCN1 [Example 25, Prolinyl (αbenzyl)-L-Prolinyl-L-Arginine Aldehyde Dihydrochloride] | 350 L/mol × 10^6 | 960 ng/mL | 28 ng/mL | 0.0045 L/mol × 10^6 | 0.27 L/mol × 10^6 | 1,400 ng/mL | 43 L/mol × 10^6 | 0.77 L/mol × 10^6
Cl.Cl.N=C(N)NCCC[C@@H](C=O)NC(=O)[C@@H]1CCCN1C(=O)C1(Cc2ccccc2)CCN1 (stereo partly shown) [Example 26] | 75 L/mol × 10^6 | 1,400 ng/mL | 42 ng/mL | 0.0028 L/mol × 10^6 | 0.12 L/mol × 10^6 | 1,100 ng/mL | 17 L/mol × 10^6 | 0.17 L/mol × 10^6
CCOC(=O)N[C@H](Cc1ccccc1)C(=O)N1CCC[C@@]1(C)C(=O)N[C@H](C=O)CCCNC(=N)N.Cl [Example 27, N-ethoxycarbonyl-D-Phenylalanyl(α-methyl)-L-prolinyl-L-arginine aldehyde hydrochloride] | 75 L/mol × 10^6 | 2,500 ng/mL | 48 ng/mL | 0.00079 L/mol × 10^6 | 0.044 L/mol × 10^6 | 2,200 ng/mL | 2.4 L/mol × 10^6 | 0.059 L/mol × 10^6
CCS(=O)(=O)N[C@H](Cc1ccccc1)C(=O)N1CCC[C@@]1(C)C(=O)N[C@H](C=O)CCCNC(=N)N.Cl [Example 28, N-ethylsulfonyl-D-Phenylalanyl(α-methyl)-L-prolinyl-L-arginine aldehyde hydrochloride] | 24 L/mol × 10^6 | 1,600 ng/mL | 100 ng/mL | 0.051 L/mol × 10^6 | 0.11 L/mol × 10^6 | 2,400 ng/mL | 20 L/mol × 10^6 | 0.31 L/mol × 10^6
CCOC(=O)N[C@@H](Cc1ccccc1)C(=O)N1CCC[C@@]1(C)C(=O)N[C@H](C=O)CCCNC(=N)N.Cl [Example 29, N-ethoxycarbonyl-phenylalanyl(αmethyl)-L-prolinyl-L-arginine aldehyde hydrochloride] | 5.0 L/mol × 10^6 | 5,400 ng/mL | 190 ng/mL | 0.00072 L/mol × 10^6 | 0.025 L/mol × 10^6 | 6,100 ng/mL | 1.7 L/mol × 10^6 | 0.020 L/mol × 10^6
CCCCC(CCCC)(NC(=O)OCC)C(=O)N1CCC[C@H]1C(=O)N[C@H](C=O)CCCNC(=N)N.Cl [Example 42, N-ethoxycarbonylglycinyl(α,αdi-n-butyl)-L-prolinyl-L-arginine aldehyde hydrochloride] |  | 3,000 ng/mL | 120 ng/mL | 0.010 L/mol × 10^6 | 0.22 L/mol × 10^6 | 2,800 ng/mL | 38 L/mol × 10^6 | 0.24 L/mol × 10^6
